In article PMC8408276, “Distinct neuropeptide-receptor modules regulate a sex-specific behavioral response to a pheromone” (Communications Biology, 2021):
“Also recorded” adds a separate entry of the source. Where a SMILES comes first, the peptide text is derived from it. Where no end group is shown, it is not given here.

How the values were obtained:
[1] = molecular target: T1, NPR-10B (Caenorhabditis elegans, UniProt Q6EUU1); assay: In vitro GPCR activation assay (CHO-K1, aequorin, Gα16), NPR-10B; format: cell-based, C. elegans; conditions: for EC50: NPR-10B in CHO-K1 cells with mtAEQ aequorin and human Gα16, peptide 1 pM to 10 µM, n ≥ 6, Fig. 4i
T1 sequence (Q6EUU1 1-362): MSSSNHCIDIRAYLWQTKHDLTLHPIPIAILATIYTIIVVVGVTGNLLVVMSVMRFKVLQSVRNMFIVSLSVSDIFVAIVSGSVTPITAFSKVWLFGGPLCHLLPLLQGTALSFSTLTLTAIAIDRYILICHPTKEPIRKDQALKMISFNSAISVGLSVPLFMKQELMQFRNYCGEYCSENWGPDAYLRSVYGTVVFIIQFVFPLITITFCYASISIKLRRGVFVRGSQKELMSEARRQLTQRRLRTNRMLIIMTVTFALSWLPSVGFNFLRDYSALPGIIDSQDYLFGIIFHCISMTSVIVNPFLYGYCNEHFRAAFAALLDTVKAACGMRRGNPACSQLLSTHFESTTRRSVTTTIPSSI
Procedure: (§1) The GPCR activation assay was performed as previously described[66],[74]. Briefly, npr-10 and frpr-16 cDNAs were cloned into the pcDNA3.1 TOPO expression vector (Thermo Fisher Scientific). A CHO-K1 cell line (PerkinElmer, ES-000-A24) stably expressing apo-aequorin targeted to the mitochondria (mtAEQ) and human Gα16 was transiently transfected with the receptor cDNA construct or the empty pcDNA3.1 vector using Lipofectamine LTX and Plus reagent (Thermo Fisher Scientific). Cells were shifted to 28 °C one day later and allowed to incubate for 24 h. On the day of the assay, cells were collected in BSA medium (DMEM/Ham’s F12 with 15 mM HEPES, without phenol red, 0.1% BSA) and loaded with […] coelenterazine h (Thermo Fisher Scientific) for 4 h at room temperature. The incubated cells were then added to synthetic peptides dissolved in DMEM/BSA, and luminescence was measured for 30 s at 496 nm using a Mithras LB940 (Berthold Technologies) or MicroBeta LumiJet luminometer (PerkinElmer). After 30 s of readout, 0.1% triton X-100 was added to lyse the cells, resulting in a maximal calcium response that was measured for 10 s. After initial screening, concentration-response curves were constructed for HPLC-purified FLP-3 peptides by subjecting the transfected cells to each peptide in a concentration range from 1 pM to 10 µM. Cells transfected with an empty vector were used as a negative control. Assays were performed in triplicate on at least two independent days. Concentration-response curves were fitted using Prism v. 7 (nonlinear regression analysis with a sigmoidal concentration-response equation).

[2] = molecular target: T2, FRPR-16 (Caenorhabditis elegans, UniProt Q21957); assay: In vitro GPCR activation assay (CHO-K1, aequorin, Gα16), FRPR-16; format: cell-based, C. elegans; conditions: for EC50: FRPR-16 in CHO-K1 cells with mtAEQ aequorin and human Gα16, peptide 1 pM to 10 µM, n ≥ 6, Fig. 4i
T2 sequence (Q21957 1-340): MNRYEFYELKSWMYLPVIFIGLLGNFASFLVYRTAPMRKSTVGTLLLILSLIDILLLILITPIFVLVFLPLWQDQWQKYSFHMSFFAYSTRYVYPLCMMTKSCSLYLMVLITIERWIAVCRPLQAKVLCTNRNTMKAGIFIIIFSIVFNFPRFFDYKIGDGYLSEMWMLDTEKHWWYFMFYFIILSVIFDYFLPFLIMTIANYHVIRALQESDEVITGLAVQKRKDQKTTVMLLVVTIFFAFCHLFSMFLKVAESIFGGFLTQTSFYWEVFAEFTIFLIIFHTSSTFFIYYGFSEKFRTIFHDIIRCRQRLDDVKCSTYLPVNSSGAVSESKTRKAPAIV
Procedure: as §1

[3] = system: NPR-10A; assay: In vitro GPCR activation assay (CHO-K1, aequorin, Gα16), NPR-10A; format: cell-based, C. elegans; conditions: CHO-K1 aequorin/Gα16 calcium response; Supplementary Fig. 10a
Procedure: This peptide contains an R-to-K mutation within the C-terminal motif, which may explain the lack of receptor activation.
as §1, with “After initial screening, concentration-response curves were constructed for HPLC-purified FLP-3 peptides by subjecting the transfected cells to each peptide in a concentration range from 1 pM to 10 µM. Cells transfected with an empty vector were used as a negative control. Assays were performed in triplicate on at least two independent days. Concentration-response curves were fitted using Prism v. 7 (nonlinear regression analysis with a sigmoidal concentration-response equation).” left out

[4] = system: C. elegans; assay: Single worm attraction assay (SWAA); format: in vivo; conditions: flp-3 lof males; Supplementary Fig. 5
Procedure: We adapted the spot retention assay (Supplementary Fig. 1)[28],[38] to allow for better characterization of individual worm behavior and robust interrogation of attraction to small molecules. We first compared the attractiveness of 1 µM ascr#8 (Fig. 1a, inset) across multiple strains of C. elegans (the wild-type N2 strain, the high incidence of male him-5 and him-8 strains, and the chemosensory cilia defective osm-3), using our novel behavioral assay, the single worm attraction assay (SWAA) (Fig. 1a). In this assay, individual animals are placed directly into the spot of the ascaroside cue (A) while simultaneously removing any potential of male–male contact. A spatial control is included throughout the assay plate to allow us to investigate any innate differences in the number of visits to the well center, or the time spent therein, of which we have only found one strain to date with differences in male dwell time (Fig. 1a). Likewise, a vehicle control (V) is also included, to account of any changes in dwell time that are driven by the components of the vehicle. The outer forty wells of a 48-well suspension culture plate (Olympus Plastics, Cat #: 25-103) were seeded with 200 µL of standard NGM agar. To prepare the plates for the assay, they were acclimated to room temperature, at which point each well was seeded with 65 µL of OP50 E. coli. […] A single worm was placed in each of the 10 wells to be assayed, and the plate was transferred to a light source and camera and recorded for 15 m. […] Raw dwell time values were calculated by subtracting the time a worm exited the cue (center of the well in spatial controls), from the time it entered, as in the SRA[14]. This was determined per visit, and the average dwell time was calculated for each animal in the quadrant. Averages of the four-quadrant means were determined per plate, and a minimum of five plates were assayed per strain/condition. The mean raw dwell time across five plates was calculated and used for statistical analyses and graphical display. […] The number of visits per-worm was calculated, and the average visit count determined per quadrant, and per plate. The average visit count across five plates was calculated and used for statistical analyses and graphical display. An “attractive visit” was first determined for each plate as any visit greater than two standard deviations above the mean dwell time within the vehicle control for that plate. Any individual visit meeting this threshold was scored as a “1”, and any below was scored a “0”. The percent visits per-worm that were attractive was determined, and the average of each quadrant taken. […] The average percent of attractive visits across five plates was calculated and used for statistical analyses and graphical display. […]

[5] = CHO-K1 aequorin/Gα16 calcium response

Molecule | EC50 ([1]; luminescence 30 s) | EC50 ([2]; luminescence 30 s) | further results
CSCC[C@H](NC(=O)[C@@H](NC(=O)CNC(=O)[C@H](CC(C)C)NC(=O)[C@@H]1CCCN1C(=O)[C@H](CCC(=O)O)NC(=O)[C@H](CCC(=O)O)NC(=O)[C@H](C)NC(=O)[C@@H](N)CCC(=O)O)[C@@H](C)O)C(=O)N[C@@H](CCCNC(=N)N)C(=O)N[C@@H](Cc1ccccc1)C(N)=O [FLP-3-3, EAEEPLGTMRFamide] (H-EAEEPLGTMRF-NH2) | 867 nM | 288 nM | 
CSCC[C@H](NC(=O)[C@@H](NC(=O)CNC(=O)[C@H](Cc1ccccc1)NC(=O)[C@@H]1CCCN1C(=O)[C@@H](NC(=O)[C@H](CC(=O)O)NC(=O)[C@H](CC(N)=O)NC(=O)[C@H](CCC(=O)O)NC(=O)[C@@H]1CCCN1C(=O)[C@@H](N)CC(N)=O)[C@@H](C)O)[C@@H](C)O)C(=O)N[C@@H](CCCNC(=N)N)C(=O)N[C@@H](Cc1ccccc1)C(N)=O [FLP-3-9, NPENDTPFGTMRFamide] (H-NPENDTPFGTMRF-NH2) | 760 nM | 88.3 nM | 
EDGNAPFGTMKF-NH2 [FLP-3-6, flp-3 encoded peptide with R-to-K mutation within the C-terminal motif] |  |  | Activation of NPR-10 (NPR-10B), in words [1, 5]: activated no receptors; also recorded: did not activate either receptor; Activation of NPR-10A, in words [3]: activated no receptors; Activation of FRPR-16, in words [2, 5]: activated no receptors; also recorded: did not activate either receptor
C[C@H](CCCC/C=C/C(=O)O)O[C@@H]1O[C@@H](C)[C@H](O)C[C@H]1O [ascr#3] |  |  | Attractive response, in words [4]: no defect
CSCC[C@H](NC(=O)[C@@H](NC(=O)CNC(=O)[C@H](Cc1ccccc1)NC(=O)[C@H](CC(C)C)NC(=O)[C@H](C)NC(=O)[C@H](CC(=O)O)NC(=O)[C@H](CCC(=O)O)NC(=O)[C@H](CO)NC(=O)[C@H](C)N)[C@@H](C)O)C(=O)N[C@@H](CCCNC(=N)N)C(=O)N[C@@H](Cc1ccccc1)C(N)=O [FLP-3-5, ASEDALFGTMRFamide] (H-ASEDALFGTMRF-NH2) |  | 72.1 nM | EC50 [1]: 1100 nM
CSCC[C@H](NC(=O)[C@@H](NC(=O)CNC(=O)[C@H](Cc1ccccc1)NC(=O)[C@@H]1CCCN1C(=O)[C@H](CCC(=O)O)NC(=O)[C@H](C)NC(=O)[C@@H](N)CO)[C@@H](C)O)C(=O)N[C@@H](CCCNC(=N)N)C(=O)N[C@@H](Cc1ccccc1)C(N)=O [FLP-3-7, SAEPFGTMRFamide] (H-SAEPFGTMRF-NH2) | 439 nM | 39.5 nM | 
CSCC[C@H](NC(=O)[C@@H](NC(=O)CNC(=O)[C@H](Cc1ccccc1)NC(=O)[C@@H]1CCCN1C(=O)[C@H](C)NC(=O)[C@H](CO)NC(=O)[C@H](CC(=O)O)NC(=O)[C@H](CC(=O)O)NC(=O)[C@H](C)NC(=O)[C@@H](N)CO)[C@@H](C)O)C(=O)N[C@@H](CCCNC(=N)N)C(=O)N[C@@H](Cc1ccccc1)C(N)=O [FLP-3-8, SADDSAPFGTMRFamide] (H-SADDSAPFGTMRF-NH2) |  |  | EC50 [2]: 1600 nM

Now from value to molecule, other results behind:

EC50 ([1]; luminescence 30 s) | EC50 ([2]; luminescence 30 s) | Molecule | further results
262 nM | 7.4 nM | CSCC[C@H](NC(=O)[C@@H](NC(=O)CNC(=O)[C@H](CC(C)C)NC(=O)[C@@H]1CCCN1C(=O)[C@@H](N)CO)[C@@H](C)O)C(=O)N[C@@H](CCCNC(=N)N)C(=O)N[C@@H](Cc1ccccc1)C(N)=O [FLP-3-1, SPLGTMRFamide] (H-SPLGTMRF-NH2) | 
427 nM | 10.7 nM | CSCC[C@H](NC(=O)[C@@H](NC(=O)CNC(=O)[C@H](CC(C)C)NC(=O)[C@@H]1CCCN1C(=O)[C@@H](N)CC(N)=O)[C@@H](C)O)C(=O)N[C@@H](CCCNC(=N)N)C(=O)N[C@@H](Cc1ccccc1)C(N)=O [FLP-3-4, NPLGTMRFamide] (H-NPLGTMRF-NH2) | 
367 nM | 31.7 nM | CSCC[C@H](NC(=O)[C@@H](NC(=O)CNC(=O)[C@H](CC(C)C)NC(=O)[C@@H]1CCCN1C(=O)[C@@H](N)[C@@H](C)O)[C@@H](C)O)C(=O)N[C@@H](CCCNC(=N)N)C(=O)N[C@@H](Cc1ccccc1)C(N)=O [FLP-3-2, TPLGTMRFamide] (H-TPLGTMRF-NH2) | 
